In patent US20260365692A1, “COMPOSITIONS COMPRISING PROTEINS DISSOLVED IN FLUORINATED SOLVENTS, AND METHODS OF MAKING AND USING THE SAME” (priority 2022, published 2026):

Key:
[1] = test system: seven model proteins (Hb, GFP, BSA, β-Gal, IgG, TFN, URE); experiment: Fluorochemical-mediated dispersion of test proteins into perfluorohexane; format: physicochemical; details: PFNA-mediated, protein hydrodynamic radius 3.5 nm
From the text: Only the rabbit IgG Fc fragment is shown.
For PFAS amphiphiles, the combination of polar head group and fluorophilic tail additionally leads to their preferential assembly at water-fluorous interfaces. Based on these unique properties, it was speculated that PFAS compounds may noncovalently associate with proteins to mediate their phase separation into fluorous media. To test this, a screening assay was developed to qualitatively investigate the binding affinity of a library of perfluorinated chemicals with seven model proteins, which include human hemoglobin (Hb), green fluorescent protein (GFP), bovine serum albumin (BSA), (β-Galactosidase (β-Gal), rabbit serum immunoglobulin (IgG), bovine apo-transferrin (TFN), and urease (URE). This group of model proteins captures an array of physicochemical properties ranging in molecular weight, solvent accessible surface area (SASA), isoelectric point (pI), and hydrodynamic radii. A corresponding perfluorinated small molecule test set was selected to contain a plurality of functional groups, linear perfluorocarbon chain lengths, and cyclic or aromatic geometries (FIGS. 1-7). Selection of these compounds was based on their potential to form noncovalent bonds (i.e., hydrogen or ionic) with the solvent exposed protein surfaces. […] These three linear PFAS chemicals are currently regulated by the US Environmental Protection Agency based on their reproductive, immune, and hepatic toxicity (References: 44-46). In sum, the structural and biochemical diversity represented in the protein and fluorochemical libraries was rationally selected to allow structure-function-performance relationships to be ascertained from binding studies.

BSA [2] = molecular target: T1, BSA (Bos taurus, UniProt P02769); experiment: Surface plasmon resonance, BSA; format: binding, bovine; details: after reference correction
From the text: FIGS. 14A-14L depict circular dichroism spectra of Hb (FIG. 14A), GFP (FIG. 14B), BSA (FIG. 14C), β-Gal (FIG. 14D), rabbit serum IgG (FIG. 14E), transferrin (FIG. 14F), and urease (FIG. 14G) in the absence (black line) or presence (dashed lines) of PFNA. Increasing dash sequence indicated higher concentration of PFNA. FIG. 14H: Change in molar ellipticity at 216 nm (Δθ216) of PFNA-treated proteins, relative to native controls, as a function of increasing ligand concentration. FIG. 14I: Percentage change in secondary structural motifs of Hb, β-Gal and IgG between the native protein and 1 mM PFNA treated samples. β-sheet structures were further differentiated into parallel and antiparallel conformations. Hb, β-Gal and IgG were prioritized for analysis based on their significant spectral shift in the presence of 1 mM PFNA. FIGS. 14J-14L: Sensograms for BSA (FIG. 14J), β-gal (FIG. 14K), and IgG (FIG. 14L) showing relative response (R.U.) at 10, 25, 50, 75, and 100 μM.
To test this assertion, PFNA binding to three exemplary proteins, BSA, β-Gal and IgG, was studied via isothermal titration calorimetry (ITC) and surface plasmon resonance (SPR) techniques. […] SPR analysis yielded similar results, with sensorgrams (FIGS. 14J-14L) that diverged from a simple 1:1 ligand-protein model. […]

TFN = TFN (Bos taurus, UniProt Q29443); experiment: 19F NMR of PFNA with TFN; format: binding, bovine
From the text: This further supported the conclusion that, like TFE, adsorption of PFNA to protein surfaces aligned the fluorinated tail parallel to the solvent accessible exterior, with further stabilization via F . . . H bonding with surface N—H groups (FIG. 12, FIGS. 12A-12E, and FIG. 13). This ultimately generated the fluorine rich coating that altered water accessibility and promoted secondary structure.

A549 cells = experiment: Protein uptake in A549 cells, GFP; format: cell-based, human; details: PFNA, 24-hour exposure
Description: FIGS. 17A-17B depict the uptake of GFP in human lung A549 cells after 2 and 24 hours of incubation in the absence/presence of PFNA. Results are shown in relative fluorescence units (RFU).
Multiplexed in vitro assays were employed to probe the influence of PFNA interactions on protein uptake and transport in cells. A549 and PC9 human lung cells were prioritized for these assays given that pulmonary tissue is a primary site of perfluoroalkyl bioaccumulation in humans (Reference: 63). Before initiating experiments, cellular toxicity assays established a maximum tolerated dose of PFNA to avoid confounding protein transport experiments with substantive cell death. Protein uptake was then studied using green fluorescent protein (GFP) and bovine serum albumin (BSACy5) as model biologics that employ non-specific pinocytic mechanisms for cellular entry.

BSA [3] = molecular target: T1, BSA; experiment: FTIR of BSA eluted from PFOc into PBS; parameters: species or system bovine; details: dispersed BSA extracted from PFOc into PBS
Description: FIG. 47 depicts stacked FTIR spectra of PD-7, BSA and the PD-7:BSA complex after elution into PBS.
To test this assertion, Fourier transform infrared (FTIR) spectroscopy was performed on BSA samples following extraction of the PD-7 dispersed protein from PFOc into a physiologic buffer. Selected model protein BSA was diluted to […], and PFNA was diluted to 2 mM in PBS. The intermolecular interactions were initiated by adding an equal amount of BSA and PFNA samples into a centrifuge tube. After 1-hour incubation, samples were frozen at −80 °C, and lyophilize overnight to remove water. FTIR spectrometry was then performed on powdered samples using LN-MCT detector (4000-800 cm-1, backward output). Data is represented by average+−SD of wavenumber among replicates depicting corresponding characteristic bonds. An equal volume of PBS was added to the BSA:PD-7 sample in PFOc, and vortexing the phase separated mixture for ~2 seconds.

T1 sequence (P02769 25-607): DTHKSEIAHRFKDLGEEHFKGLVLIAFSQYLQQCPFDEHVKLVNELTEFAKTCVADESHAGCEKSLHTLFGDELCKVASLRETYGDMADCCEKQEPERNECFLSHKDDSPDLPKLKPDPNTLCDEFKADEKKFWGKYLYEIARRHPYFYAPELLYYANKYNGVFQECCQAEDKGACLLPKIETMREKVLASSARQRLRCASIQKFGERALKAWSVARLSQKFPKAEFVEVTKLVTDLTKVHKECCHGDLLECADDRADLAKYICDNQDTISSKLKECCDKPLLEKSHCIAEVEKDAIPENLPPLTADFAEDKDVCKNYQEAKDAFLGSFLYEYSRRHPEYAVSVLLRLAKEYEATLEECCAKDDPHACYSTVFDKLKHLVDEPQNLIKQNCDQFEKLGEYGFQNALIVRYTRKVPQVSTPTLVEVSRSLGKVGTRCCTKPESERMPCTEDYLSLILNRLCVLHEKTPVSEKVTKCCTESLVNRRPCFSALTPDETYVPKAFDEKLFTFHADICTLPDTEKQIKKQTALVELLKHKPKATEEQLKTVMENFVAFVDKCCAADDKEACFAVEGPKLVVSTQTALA
TFN, sequence (Q29443 20-704): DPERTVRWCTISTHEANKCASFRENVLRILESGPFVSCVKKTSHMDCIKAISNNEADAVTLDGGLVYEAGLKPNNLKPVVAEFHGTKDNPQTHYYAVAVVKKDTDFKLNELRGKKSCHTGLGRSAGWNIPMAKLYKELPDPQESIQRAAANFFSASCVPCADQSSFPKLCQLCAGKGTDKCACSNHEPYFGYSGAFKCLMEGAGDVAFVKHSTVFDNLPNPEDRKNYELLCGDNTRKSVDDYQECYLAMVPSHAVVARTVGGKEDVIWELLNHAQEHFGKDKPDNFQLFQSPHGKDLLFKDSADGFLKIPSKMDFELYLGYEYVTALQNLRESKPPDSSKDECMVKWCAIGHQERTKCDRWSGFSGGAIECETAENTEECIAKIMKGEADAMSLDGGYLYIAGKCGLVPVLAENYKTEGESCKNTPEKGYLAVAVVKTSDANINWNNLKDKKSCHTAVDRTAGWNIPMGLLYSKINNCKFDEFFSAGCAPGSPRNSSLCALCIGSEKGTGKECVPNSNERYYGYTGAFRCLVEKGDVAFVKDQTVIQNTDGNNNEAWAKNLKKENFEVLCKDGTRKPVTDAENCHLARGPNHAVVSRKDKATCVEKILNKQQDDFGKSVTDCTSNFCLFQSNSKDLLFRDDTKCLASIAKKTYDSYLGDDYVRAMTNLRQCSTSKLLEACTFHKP

Compound: O=C(O)C(F)(F)C(F)(F)C(F)(F)C(F)(F)C(F)(F)C(F)(F)C(F)(F)C(F)(F)F [Compound 7, perfluoronanonic acid]
- protein dispersion [1]: 60%
- SPR response (BSA [2]): negative responses
- 19F NMR peak change upon interaction (TFN): broadening of PFNA's peaks
- uptake of GFP (A549 cells): nominal increase in uptake
- dispersant spectral feature after extraction into physiologic buffer/PBS (BSA [3]): showed the presence of C—F stretching vibrations (1500-1000 cm-1)
